Common to all, as to assay type: functional
Test [1] deals with HCT-15. The test can be described thus: Cytotoxicity against human HCT15 cells.
For test [2], the system named is NCI-H460. The test can be described thus: Cytotoxicity against human NCI-H460 cells.
Test [3] is described as follows: Cytotoxicity against human RXF631L cells. The settings on record: RXF 631.
For test [4], the system named is SF-295. Kind of test: Cytotoxicity against human SF295 cells.
Test [5] concerns DMS-114. The test can be described thus: Cytotoxicity against human DMS114 cells.
Test [6] concerns MDA-MB-231. Kind of test: Cytotoxicity against human MDA-MB-231 cells.
In test [7] the test system is SF-539. Kind of test: Cytotoxicity against human SF539 cells.
Test [8] deals with OVCAR-8. The test can be described thus: Cytotoxicity against human OVCAR8 cells.
The test system of test [9] is OVCAR-4. Kind of test: Cytotoxicity against human OVCAR4 cells.
Test [10] relates to DMS-273. The test can be described thus: Cytotoxicity against human DMS273 cells.
For test [11], the system named is SNB-75. The test can be described thus: Cytotoxicity against human SNB75 cells.
Test [12] relates to St-4. The test can be described thus: Cytotoxicity against human St4 cells.
Test [13] deals with HCT-116. Kind of test: Cytotoxicity against human HCT116 cells.
The subject of test [14] is NCI-H23. Kind of test: Cytotoxicity against human NCI-H23 cells.
The test system of test [15] is MKN-45. Kind of test: Cytotoxicity against human MKN45 cells.
The test system of test [16] is NCI-H522. The test can be described thus: Cytotoxicity against human NCI-H522 cells.
For test [17], the system named is A549. Kind of test: Cytotoxicity against human A549 cells.
For test [18], the system named is HT-29. Kind of test: Cytotoxicity against human HT29 cells.
Test [19] deals with ACHN. Kind of test: Cytotoxicity against human ACHN cells.
Test [20] has as its system OVCAR-3. The test can be described thus: Cytotoxicity against human OVCAR-3 cells.
Test [21] concerns PC-3. Kind of test: Cytotoxicity against human PC3 cells.
Test [22] concerns SF-268. Kind of test: Cytotoxicity against human SF268 cells.
For test [23], the system named is SK-OV-3. Kind of test: Cytotoxicity against human SKOV3 cells.
A short description of test [24]: Cytotoxicity against human HBC4 cells.
The test system of test [25] is LOX IMVI. The test can be described thus: Cytotoxicity against human LOX IMVI cells.
In test [26] the test system is OVCAR-5. Kind of test: Cytotoxicity against human OVCAR5 cells.
Test [27] concerns U-251. Kind of test: Cytotoxicity against human U251 cells.
The test system of test [28] is DU-145. The test can be described thus: Cytotoxicity against human DU145 cells.
Test [29] is described as follows: Cytotoxicity against human BSY1 cells. The settings on record: BSY-1.
The test system of test [30] is SNB-78. The test can be described thus: Cytotoxicity against human SNB78 cells.
For test [31], the system named is MKN-74. The test can be described thus: Cytotoxicity against human MKN74 cells.
A short description of test [32]: Cytotoxicity against human HBC5 cells.
In test [33] the test system is P388. Kind of test: Growth inhibition of mouse P388 cells. The settings on record: read-out: ED50 (the source's name).
Test [34] has as its system NCI-H226. The test can be described thus: Cytotoxicity against human NCI-H226 cells.
The test system of test [35] is MKN-28. Kind of test: Cytotoxicity against human MKN28 cells.
The nature of test [36]: Cytotoxicity against human MKN1 cells. The settings on record: MKN-1.
In test [37] the test system is KM12. Kind of test: Cytotoxicity against human KM12 cells.
For test [38], the system named is MKN-7. Kind of test: Cytotoxicity against human MKN7 cells.
Test [39] deals with MCF7. The test can be described thus: Cytotoxicity against human MCF7 cells.
Test [40] has as its system HCC 2998. Kind of test: Cytotoxicity against human HCC2998 cells.

SMILES strings stand for the structures. ≈ marks a conversion by molar mass, not a printed value.

We go through six compounds from ChEMBL document CHEMBL1141344, “Variation in cytostatic constituents of a sponge-derived Gymnascella dankaliensis by manipulating the carbon source” (2007).

For `CC(C)[C@@H](C)/C=C/[C@@H](C)[C@H]1CCC(=O)[C@]23CC(=O)C4=CC(=O)CC[C@]4(C)[C@H]2CC[C@]13C` [DANKASTERONE A], the GI50 in test [1] was 2.51 µM; in [2], 11 µM; in [3] it was 15.8 µM; in test [4], 3.72 µM; in test [5] it was 1.7 µM; in test [6], 5.89 µM. The GI50 in test [7] is 2.09 µM; in test [8], 3.63 µM; in test [9] it was 2.4 µM; in test [10] it was 1.7 µM; in test [11], 4.27 µM; in [12], 12.9 µM. The concentration for 50% growth inhibition (GI50) in test [13] was 2.29 µM; in [14] it was 3.8 µM; in test [15], 11 µM; in test [16] it was 2.51 µM; in test [17], 14.1 µM; in test [18] it was 8.13 µM. For the same compound, the 50% growth inhibitory concentration (GI50) is 2.4 µM in [19]; 2 µM in [20]; 5.62 µM in [21]; 2.82 µM in [22]; 15.8 µM in test [23]; 4.37 µM in test [24]. The concentration for 50% growth inhibition (GI50) in test [25] is 2.19 µM; in test [26] it was 2.29 µM; in test [27], 3.72 µM; in test [28], 4.07 µM; in test [29] it was 2.19 µM; in test [30] it was 3.02 µM. The GI50 was 4.37 µM in test [31]; 3.31 µM in [32]; 3.8 µM in [34]; 3.98 µM in test [35]; 1.82 µM in test [36]; 3.72 µM in test [37]. Also, the GI50 in [38] is 4.57 µM; in test [39], 3.72 µM; in test [40], 1.91 µM. In addition, the EC50 in test [33] was 2.2 µg/mL (≈ 5.18 µM).

Take `CC(C)[C@@H](C)/C=C/[C@@H](C)[C@H]1CCC(=O)[C@]23CC(=O)[C@@H]4CC(=O)CC[C@]4(C)[C@H]2CC[C@]13C` [DANKASTERONE B]: the EC50 in test [33] is 2.8 µg/mL (≈ 6.56 µM).

Consider `CCCCCC[C@H](C)/C=C(C)/C=C/C(=O)N[C@]1(C=O)C[C@H]2C[C@H]([C@H](C)/C=C/[C@H](C)C(C)C)[C@@]3(C)CC[C@H]4C(=C1C(=O)C1=C[C@@H](O)CC[C@@]14C)[C@@]23O` [GYMNASTERONE A], for which the 50% growth inhibitory concentration (GI50) is more than 100 µM in [1]; more than 100 µM in test [2]; 12.9 µM in test [3]; 87.1 µM in test [4]; 72.4 µM in test [5]; more than 100 µM in [6]. Further, the concentration for 50% growth inhibition (GI50) was 50.1 µM in test [7]; more than 100 µM in test [8]; 67.6 µM in test [9]; more than 100 µM in [10]; more than 100 µM in test [11]; more than 100 µM in test [12]. Moreover, the GI50 was more than 100 µM in [13]; more than 100 µM in test [14]; more than 100 µM in test [15]; 28.2 µM in test [16]; more than 100 µM in test [17]; more than 100 µM in [18]. Besides, the concentration for 50% growth inhibition (GI50) was more than 100 µM in test [19]; 39.8 µM in test [20]; more than 100 µM in test [21]; 21.9 µM in test [22]; more than 100 µM in test [23]; more than 100 µM in test [24]. Besides, the GI50 in test [25] was more than 100 µM; in test [26], more than 100 µM; in test [27] it was more than 100 µM; in [28] it was more than 100 µM; in test [29], more than 100 µM; in test [30] it was 12.9 µM. Moreover, the GI50 in test [31] is 28.2 µM; in [32], more than 91.2 µM; in test [34] it was 28.2 µM; in [35], more than 38 µM; in [36] it was more than 75.9 µM; in test [37] it was more than 100 µM. In addition, the GI50 was 53.7 µM in test [38], 58.9 µM in [39] and more than 100 µM in test [40].

Consider `CC(C)[C@@H](C)/C=C/[C@@H](C)[C@H]1C[C@H]2O[C@]23C2=CC(=O)[C@@H]4CC(=O)CC[C@]4(C)[C@H]2CC[C@]13C` [GYMNASTERONE B], for which the 50% growth inhibitory concentration (GI50) in test [1] is 69.2 µM; in test [2] it was more than 100 µM; in test [3], more than 100 µM; in test [4] it was 36.3 µM; in [5], 12.9 µM; in test [6], 33.1 µM. Moreover, the GI50 in [7] is more than 100 µM; in test [8], 67.6 µM; in [9] it was 49 µM; in test [10], 41.7 µM; in test [11], 56.2 µM; in [12] it was more than 100 µM. Besides, the GI50 in test [13] was 95.5 µM; in [14], 70.8 µM; in test [15], 72.4 µM; in test [16] it was 26.9 µM; in test [17], more than 100 µM; in test [18], 30.2 µM. The GI50 in test [19] was more than 100 µM; in [20] it was 66.1 µM; in test [21], 89.1 µM; in test [22], more than 100 µM; in [23] it was more than 100 µM; in test [24], more than 100 µM. For the same compound, the concentration for 50% growth inhibition (GI50) is 87.1 µM in [25]; 44.7 µM in test [26]; more than 100 µM in test [27]; 28.8 µM in test [28]; 15.1 µM in [29]; more than 100 µM in [30]. In addition, the GI50 in test [31] is 83.2 µM; in test [32], 26.9 µM; in test [34] it was 41.7 µM; in test [35], 60.3 µM; in test [36], 45.7 µM; in test [37], 67.6 µM. For the same compound, the 50% growth inhibitory concentration (GI50) in [38] was 47.9 µM; in test [39], 33.9 µM; in [40] it was 51.3 µM. For the same compound, the EC50 in test [33] is 1.6 µg/mL (≈ 3.77 µM).

In the case of `CC(C)[C@@H](C)/C=C/[C@@H](C)[C@H]1CC(=O)C2=C3C=CC4=C[C@@H](O)CC[C@]4(C)[C@H]3CC[C@@]21C` [GYMNASTERONE C], the EC50 in test [33] was 0.9 µg/mL (≈ 2.2 µM).

For `CC(C)[C@@H](C)/C=C/[C@@H](C)[C@H]1CC(=O)C2=C3C=CC4=CC(=O)CC[C@]4(C)[C@H]3CC[C@@]21C` [GYMNASTERONE D], in test [33], the EC50 worked out at 2.5 µg/mL (≈ 6.15 µM).
